Reference: ChEMBL document CHEMBL4373707 (J Med Chem, 2019)

How the values were obtained:
Integrin alpha-V/beta-3 = Integrin alpha-V/beta-3 (Homo sapiens, UniProt P05106+P06756)
Description: Inhibition of integrin alphavbeta3 (unknown origin) expressed in human K562 cells assessed as reduction in cell adhesion to GST-LAP1 (242 to 252 amino acids) incubated for 30 mins by fluorescent probe BCECF-AM based fluorescence assay

Integrin alpha-V/beta-6 [1] = biological target: T1, Integrin alpha-V/beta-6 (Homo sapiens, UniProt P06756+P18564)
Description: Inhibition of integrin alphavbeta6 (unknown origin) expressed in human K562 cells assessed as reduction in cell adhesion to GST-LAP1 (242 to 252 amino acids) incubated for 30 mins by fluorescent probe BCECF-AM based fluorescence assay

Homo sapiens [2] = organism: Homo sapiens; test: Selectivity ratio of IC50 for integrin alphavbeta3 (unknown origin) expressed in human K562 cells to IC50 for integrin alphavbeta6 (unknown origin) expressed in human K562 cells; format: cell-based
Integrin alpha-V/beta-5 = Integrin alpha-V/beta-5 (Homo sapiens, UniProt P06756+P18084)
Description: Inhibition of integrin alphavbeta5 (unknown origin) expressed in human K562 cells assessed as reduction in cell adhesion to human vitronectin incubated for 30 mins by fluorescent probe BCECF-AM based fluorescence assay

Integrin alpha-V/beta-6 [3] = biological target: T1, Integrin alpha-V/beta-6; test: Inhibition of integrin alphavbeta6 (unknown origin) by radioligand binding assay; format: protein-complex assay
Homo sapiens [4] = organism: Homo sapiens; test: Selectivity ratio of IC50 for integrin alphavbeta1 (unknown origin) expressed in human A549 cells to IC50 for integrin alphavbeta6 (unknown origin) expressed in human K562 cells; format: cell-based
[5] = buffer
Description: (§1) Aqueous kinetic solubility of the compund by CLND method

Integrin alpha-V/beta-8 = Integrin alpha-V/beta-8 (Homo sapiens, UniProt P06756+P26012)
Description: Inhibition of integrin alphavbeta8 (unknown origin) expressed in human K562 cells assessed as reduction in cell adhesion to GST-LAP1 (242 to 252 amino acids) incubated for 30 mins by fluorescent probe BCECF-AM based fluorescence assay

Homo sapiens [6] = organism: Homo sapiens; test: Selectivity ratio of IC50 for integrin alphavbeta8 (unknown origin) expressed in human K562 cells to IC50 for integrin alphavbeta6 (unknown origin) expressed in human K562 cells; format: cell-based
physchem [7] = conditions: buffer, pH 7.4
Description: Lipophilicity, logD of the compound at pH 7.4 by chromatographic method

Homo sapiens [8] = organism: Homo sapiens; test: Selectivity ratio of IC50 for integrin alphavbeta5 (unknown origin) expressed in human K562 cells to IC50 for integrin alphavbeta6 (unknown origin) expressed in human K562 cells; format: cell-based
Integrin alpha-V/beta-1 = Integrin alpha-V/beta-1 (Homo sapiens, UniProt P05556+P06756)
Description: Inhibition of integrin alphavbeta1 (unknown origin) expressed in human A549 cells assessed as reduction in cell adhesion to GST-LAP1 (242 to 252 amino acids) incubated for 30 mins by fluorescent probe BCECF-AM based fluorescence assay

[9] = Stability in cryopreserved Wistar-Han rat hepatocytes assessed as compound turnover rate at 0.5 uM measured up to 60 mins by LC-MS/MS analysis; format: ADME, cell-based, Hepatocyte; conditions: 1 h
[10] = Unbound blood clearance in dual cannulated Wistar-Han rat at 1 mg/kg, iv administered as infusion for 30 mins and measured up to 24 hrs by LC-MS/MS analysis; format: ADME, organism-based; conditions: in vivo
[11] = Blood clearance in dual cannulated Wistar-Han rat at 1 mg/kg, iv administered as infusion for 30 mins and measured up to 24 hrs by LC-MS/MS analysis; format: ADME, organism-based; conditions: whole blood
[12] = Volume of distribution in dual cannulated Wistar-Han rat at 1 mg/kg, iv administered as infusion for 30 mins and measured up to 24 hrs by LC-MS/MS analysis; format: ADME, organism-based; conditions: in vivo
[13] = Stability in cryopreserved human hepatocytes at 0.5 uM measured up to 60 mins by LC-MS/MS analysis; format: ADME, cell-based, Hepatocyte; conditions: 1 h
[14] = Inhibition of integrin alphavbeta8 (unknown origin) by radioligand binding assay; parameters: species or system Homo sapiens
[15] = Inhibition of human LAP binding to human integrin alphavbeta8 after 2 hrs
[16] = Blood clearance in dual cannulated Wistar-Han rat at 1 mg/kg, iv administered as infusion for 60 mins and measured up to 7 hrs by LC-MS/MS analysis; format: ADME, organism-based; conditions: whole blood
[17] = Volume of distribution in dual cannulated Wistar-Han rat at 1 mg/kg, iv administered as infusion for 60 mins and measured up to 7 hrs by LC-MS/MS analysis; format: ADME, organism-based; conditions: in vivo
[18] = biological target: Voltage-gated inwardly rectifying potassium channel KCNH2 (Homo sapiens, UniProt Q12809); test: Inhibition of human ERG expressed in CHO-K1 cells at -80 mV holding potential by IonWorks barracuda automated electrophysiology method; format: cell-based
[19] = Drug metabolism assessed as unmethylated (3S)-3-[3-(3,5-dimethylpyrazol-1-yl)phenyl]-4-[(3R)-3-[2-(5,6,7,8-tetrahydro-1,8-naphthyridin-2-yl)ethyl]pyrrolidin-1-yl]butanoic acid hydrochloride formation
physchem [20] = conditions: buffer
Description: as §1

[21] = Protein binding in rat blood assessed as unbound fraction at 1 ug/ml incubated for 4 hrs by LC-MS/MS-based rapid equilibrium dialysis method; format: ADME, tissue-based; conditions: at 1 µg/mL
[22] = Protein binding in human blood assessed as fraction unbound at 1 ug/ml incubated for 4 hrs by LC-MS/MS-based rapid equilibrium dialysis method; format: ADME, tissue-based; conditions: at 1 µg/mL
[23] = Unbound blood clearance in dual cannulated Wistar-Han rat at 1 mg/kg, iv administered as infusion for 60 mins and measured up to 7 hrs by LC-MS/MS analysis; format: ADME, organism-based; conditions: in vivo
[24] = Half-life in dual cannulated Wistar-Han rat at 1 mg/kg, iv administered as infusion for 60 mins and measured up to 7 hrs by LC-MS/MS analysis; format: ADME, organism-based; conditions: in vivo
in vitro = conditions: not told
Description: Permeability of the compound

[25] = Protein binding in human lung homogenates assessed as fraction unbound at 1 ug/ml incubated for 4 hrs by LC-MS/MS-based rapid equilibrium dialysis method; format: ADME, tissue-based; conditions: at 1 µg/mL

Integrin alpha-V/beta-1, sequence (P05556 21-798 limits assumed): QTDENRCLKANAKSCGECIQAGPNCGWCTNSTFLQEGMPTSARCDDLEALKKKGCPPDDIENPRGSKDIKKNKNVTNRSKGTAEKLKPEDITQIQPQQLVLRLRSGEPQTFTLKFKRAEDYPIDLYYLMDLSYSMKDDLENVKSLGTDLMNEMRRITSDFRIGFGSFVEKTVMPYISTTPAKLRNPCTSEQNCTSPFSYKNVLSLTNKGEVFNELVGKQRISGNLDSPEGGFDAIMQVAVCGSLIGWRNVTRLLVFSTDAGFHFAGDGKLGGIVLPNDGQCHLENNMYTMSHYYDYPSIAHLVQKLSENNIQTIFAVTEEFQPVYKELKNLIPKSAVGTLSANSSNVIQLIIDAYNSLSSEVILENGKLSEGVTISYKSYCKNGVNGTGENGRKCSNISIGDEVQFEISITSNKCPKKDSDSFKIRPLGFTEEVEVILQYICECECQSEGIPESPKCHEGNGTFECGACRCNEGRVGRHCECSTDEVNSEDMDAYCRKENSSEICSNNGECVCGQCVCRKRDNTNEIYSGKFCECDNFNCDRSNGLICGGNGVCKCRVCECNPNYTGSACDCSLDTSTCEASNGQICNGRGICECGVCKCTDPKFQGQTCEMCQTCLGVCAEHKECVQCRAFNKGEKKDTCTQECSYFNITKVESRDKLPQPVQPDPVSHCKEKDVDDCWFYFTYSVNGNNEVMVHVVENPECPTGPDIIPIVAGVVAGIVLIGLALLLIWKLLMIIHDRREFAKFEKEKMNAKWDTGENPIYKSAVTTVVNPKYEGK
Integrin alpha-V/beta-1, sequence (P06756 31-889 limits assumed): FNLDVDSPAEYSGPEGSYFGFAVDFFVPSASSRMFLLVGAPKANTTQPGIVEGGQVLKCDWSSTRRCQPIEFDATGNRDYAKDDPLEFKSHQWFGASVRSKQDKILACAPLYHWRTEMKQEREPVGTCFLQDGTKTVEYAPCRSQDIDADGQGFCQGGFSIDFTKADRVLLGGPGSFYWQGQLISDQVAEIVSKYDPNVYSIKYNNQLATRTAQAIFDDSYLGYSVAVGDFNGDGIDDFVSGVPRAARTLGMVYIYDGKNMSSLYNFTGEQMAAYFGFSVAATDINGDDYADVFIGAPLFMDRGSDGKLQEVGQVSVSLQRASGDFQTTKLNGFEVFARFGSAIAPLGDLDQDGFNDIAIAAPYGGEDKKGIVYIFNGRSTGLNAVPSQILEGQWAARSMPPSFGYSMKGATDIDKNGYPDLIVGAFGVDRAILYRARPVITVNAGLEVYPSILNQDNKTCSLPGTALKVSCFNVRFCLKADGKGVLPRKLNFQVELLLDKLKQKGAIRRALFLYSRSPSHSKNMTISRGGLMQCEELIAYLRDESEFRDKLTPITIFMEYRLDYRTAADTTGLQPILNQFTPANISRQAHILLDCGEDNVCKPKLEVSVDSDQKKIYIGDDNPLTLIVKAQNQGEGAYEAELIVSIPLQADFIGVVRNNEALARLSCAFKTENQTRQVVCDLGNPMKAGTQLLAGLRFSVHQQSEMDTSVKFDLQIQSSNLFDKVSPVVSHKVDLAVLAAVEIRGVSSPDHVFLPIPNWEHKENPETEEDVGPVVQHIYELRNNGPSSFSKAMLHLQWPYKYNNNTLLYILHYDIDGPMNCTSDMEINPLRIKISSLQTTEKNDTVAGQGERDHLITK
Integrin alpha-V/beta-1, sequence (P06756 891-1048 limits assumed): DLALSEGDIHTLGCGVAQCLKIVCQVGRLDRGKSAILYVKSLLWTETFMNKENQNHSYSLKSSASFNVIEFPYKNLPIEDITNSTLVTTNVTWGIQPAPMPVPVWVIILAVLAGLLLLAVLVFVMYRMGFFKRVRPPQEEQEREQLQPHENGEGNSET
T1 sequence (P06756 31-889 limits assumed): as the sequence (P06756 31-889 limits assumed) above
T1 sequence (P06756 891-1048 limits assumed): as the sequence (P06756 891-1048 limits assumed) above
T1 sequence (P18564 22-788 limits assumed): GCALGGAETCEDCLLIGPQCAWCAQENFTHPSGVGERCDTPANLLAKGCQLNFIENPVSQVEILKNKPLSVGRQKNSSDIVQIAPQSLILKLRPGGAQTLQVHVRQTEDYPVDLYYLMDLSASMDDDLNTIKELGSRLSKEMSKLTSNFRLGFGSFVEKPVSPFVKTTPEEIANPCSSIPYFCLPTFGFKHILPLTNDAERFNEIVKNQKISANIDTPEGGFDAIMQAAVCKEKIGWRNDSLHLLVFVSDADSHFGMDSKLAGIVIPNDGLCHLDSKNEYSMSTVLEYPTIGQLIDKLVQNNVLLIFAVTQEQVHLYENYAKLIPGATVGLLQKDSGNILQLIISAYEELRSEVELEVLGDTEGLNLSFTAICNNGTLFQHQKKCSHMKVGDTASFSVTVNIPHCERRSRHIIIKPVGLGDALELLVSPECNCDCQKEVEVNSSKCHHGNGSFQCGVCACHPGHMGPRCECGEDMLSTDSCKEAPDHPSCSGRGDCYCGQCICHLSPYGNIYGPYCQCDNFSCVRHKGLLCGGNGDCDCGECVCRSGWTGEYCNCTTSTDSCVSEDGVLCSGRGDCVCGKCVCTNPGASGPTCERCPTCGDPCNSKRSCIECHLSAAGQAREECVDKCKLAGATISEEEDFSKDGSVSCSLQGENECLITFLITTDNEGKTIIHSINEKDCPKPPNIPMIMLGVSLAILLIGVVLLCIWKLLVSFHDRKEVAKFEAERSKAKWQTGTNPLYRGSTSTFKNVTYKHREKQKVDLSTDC
Integrin alpha-V/beta-5, sequence (P06756 31-889 limits assumed): as the sequence (P06756 31-889 limits assumed) above
Integrin alpha-V/beta-5, sequence (P06756 891-1048 limits assumed): as the sequence (P06756 891-1048 limits assumed) above
Integrin alpha-V/beta-5, sequence (P18084 24-799 limits assumed): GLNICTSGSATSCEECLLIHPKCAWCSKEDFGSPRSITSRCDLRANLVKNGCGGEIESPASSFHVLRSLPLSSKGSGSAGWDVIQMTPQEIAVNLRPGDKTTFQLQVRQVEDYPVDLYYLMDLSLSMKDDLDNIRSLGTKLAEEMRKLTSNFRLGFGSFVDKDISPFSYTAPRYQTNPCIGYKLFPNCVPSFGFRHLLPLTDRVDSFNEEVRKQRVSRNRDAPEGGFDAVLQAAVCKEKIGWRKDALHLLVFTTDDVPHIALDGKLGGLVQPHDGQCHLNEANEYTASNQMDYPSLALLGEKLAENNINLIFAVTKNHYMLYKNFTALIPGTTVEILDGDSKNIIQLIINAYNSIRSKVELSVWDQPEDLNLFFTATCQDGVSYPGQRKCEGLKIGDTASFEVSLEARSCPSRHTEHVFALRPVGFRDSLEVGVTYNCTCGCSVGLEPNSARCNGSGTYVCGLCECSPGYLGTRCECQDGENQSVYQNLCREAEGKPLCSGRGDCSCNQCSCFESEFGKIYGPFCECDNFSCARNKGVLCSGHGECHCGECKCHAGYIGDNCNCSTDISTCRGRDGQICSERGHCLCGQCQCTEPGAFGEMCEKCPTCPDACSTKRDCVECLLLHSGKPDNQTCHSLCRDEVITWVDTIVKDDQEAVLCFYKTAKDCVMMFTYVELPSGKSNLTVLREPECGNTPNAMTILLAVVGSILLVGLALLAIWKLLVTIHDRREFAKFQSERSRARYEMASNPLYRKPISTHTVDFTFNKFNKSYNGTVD
Integrin alpha-V/beta-8, sequence (P06756 31-889 limits assumed): as the sequence (P06756 31-889 limits assumed) above
Integrin alpha-V/beta-8, sequence (P06756 891-1048 limits assumed): as the sequence (P06756 891-1048 limits assumed) above
Integrin alpha-V/beta-8, sequence (P26012 43-769 limits assumed): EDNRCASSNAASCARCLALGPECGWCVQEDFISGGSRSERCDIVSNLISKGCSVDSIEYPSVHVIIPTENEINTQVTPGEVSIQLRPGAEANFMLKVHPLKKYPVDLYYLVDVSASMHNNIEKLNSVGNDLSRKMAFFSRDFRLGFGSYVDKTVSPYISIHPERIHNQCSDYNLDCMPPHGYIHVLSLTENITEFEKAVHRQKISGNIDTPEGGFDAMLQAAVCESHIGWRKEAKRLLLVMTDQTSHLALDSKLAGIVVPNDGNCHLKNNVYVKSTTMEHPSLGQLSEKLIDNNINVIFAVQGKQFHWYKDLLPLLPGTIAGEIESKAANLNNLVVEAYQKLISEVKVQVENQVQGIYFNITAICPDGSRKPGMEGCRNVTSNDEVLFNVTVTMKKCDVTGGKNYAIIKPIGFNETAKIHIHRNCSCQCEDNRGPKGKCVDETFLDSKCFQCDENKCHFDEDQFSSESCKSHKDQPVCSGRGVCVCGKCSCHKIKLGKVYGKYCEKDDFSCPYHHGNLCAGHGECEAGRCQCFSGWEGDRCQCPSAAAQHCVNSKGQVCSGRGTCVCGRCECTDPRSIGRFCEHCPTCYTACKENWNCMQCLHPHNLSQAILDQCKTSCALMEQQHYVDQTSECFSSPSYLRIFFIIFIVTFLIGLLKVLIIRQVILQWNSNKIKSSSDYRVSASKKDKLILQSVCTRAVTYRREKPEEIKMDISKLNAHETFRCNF

Row | Compound | IC50 (Integrin alpha-V/beta-3) [nM] | IC50 (Integrin alpha-V/beta-6 [1]) [nM] | IC50 (Integrin alpha-V/beta-5) [nM] | Kinetic_solubility [5] | IC50 (Integrin alpha-V/beta-8) [nM] | chromatographic logD (physchem [7]) | IC50 (Integrin alpha-V/beta-1) [nM] | other results
1 | Cc1cc(C)n(-c2cccc([C@H](CC(=O)[O-])C[N@+]3(C)CC[C@@H](CCc4ccc5c(n4)NCCC5)C3)c2)n1 | > 10000 | 3.16 | 1000 | Soluble | 63.1 | 2.4 | 2000 | Ratio IC50 (Homo sapiens [2]): 10 to 1000; Ki (Integrin alpha-V/beta-6 [3]): 0.174 nM; Ratio IC50 (Homo sapiens [4]): 10 to 1000; Ratio IC50 (Homo sapiens [6]): 10 to 1000; Ratio IC50 (Homo sapiens [8]): 10 to 1000
2 | Cc1cc(C)n(-c2cccc([C@H](CC(=O)O)CN3CC[C@@H](CCc4ccc5c(n4)NCCC5)C3)c2)n1.Cl [GSK-3008348] |  |  |  |  |  |  |  | Drug metabolism [9]: 9.45 mL/min/g; CL free [10]: 150 mL/min/kg; clearance [11]: 56 mL/min/kg; Vd [12]: 2.1 L/kg; Stability [13]: < 0.86 mL/min/g; pKi [14]: 8.7
3 | C[N+]1(C[C@@H](CC(=O)[O-])c2cccc(O[C@@H]3CCOC3)c2)CC[C@@H](CCc2ccc3c(n2)NCCC3)C1 (mixture of isomers) | 3980 | 12.6 | 79.4 | Soluble | 200 | 1.9 | 3980 | 
4 | O=C(O)C[C@H](CN1CC[C@@H](CCc2ccc3c(n2)NCCC3)C1)c1cccc(N2CCOCC2)c1 |  |  |  | Soluble |  | 2.3 |  | 
5 | CC(C)(C)c1cc(Br)cc([C@H](CC(=O)O)NC(=O)CNC(=O)c2cc(O)cc(NC3=NCC(O)CN3)c2)c1 (stereo partly specified) |  |  |  |  |  |  |  | IC50 [15]: 0.2 nM
6 | C[N+]1(C[C@@H](CC(=O)[O-])c2cccc(N3CCOCC3)c2)CC[C@@H](CCc2ccc3c(n2)NCCC3)C1 (mixture of isomers) | 5010 | 12.6 | 251 | Soluble | 126 | 1.8 | 794 | 
7 | Cc1ccnn1-c1cccc([C@H](CC(=O)[O-])C[N+]2(C)CC[C@@H](CCc3ccc4c(n3)NCCC4)C2)c1 (mixture of isomers) | 6310 |  | 631 | Soluble | 100 | 2.1 | 1580 | 
8 | CC[N@+]1(C[C@@H](CC(=O)[O-])c2cccc(-n3nc(C)cc3C)c2)CC[C@@H](CCc2ccc3c(n2)NCCC3)C1 |  | 39.8 | > 10000 | Soluble | 1260 | 2.8 | 5010 | 
9 | Cc1cc(C)n(-c2cccc([C@H](CC(=O)[O-])C[N@@+]3(C)CC[C@@H](CCc4ccc5c(n4)NCCC5)C3)c2)n1 | 6310 | 3.16 | 501 |  | 79.4 | 2.5 | 631 | clearance [16]: 87.6 mL/min/kg; Vd [17]: 1.1 L/kg; IC50 [18]: > 50100 nM; Drug metabolism [9]: 1.22 mL/min/g; Drug metabolism [19]: Metabolite not detected; solubility kinetic (physchem [20]): > 1000 µg/mL; Ratio IC50 (Homo sapiens [2]): 10 to 1000; Ki (Integrin alpha-V/beta-6 [3]): 0.107 nM; fraction unbound at 4 h, 1 ug/ml [21]: 0.583; Ratio IC50 (Homo sapiens [4]): 10 to 1000; fraction unbound at 4 h, 1 ug/ml [22]: 0.503; CL free [23]: 190 mL/min/kg; half-life [24]: 13.2 min; Ratio IC50 (Homo sapiens [6]): 10 to 1000; Stability [13]: < 0.45 mL/min/g; Papp (in vitro): < 0.8 ×10⁻⁶ cm/s; Ratio IC50 (Homo sapiens [8]): 10 to 1000; fraction unbound at 4 h, 1 ug/ml [25]: 0.097
